US20090017452A1, “METHODS AND COMPOSITIONS RELATING TO THE PHARMACOGENETICS OF DIFFERENT GENE VARIANTS” (UNIVERSITY OF CHICAGO, priority 2004, published 2009)
Residue numbers refer to the chain shown, from its start. Like-named read-outs stand apart in the source and are kept apart here.

Assays:
[1] = molecular target: T1, SLCO1B1*15 (N130D and V174A) (Homo sapiens, UniProt Q9Y6L6, N130D/V174A); details: Xenopus oocytes, among the variants examined; cited from earlier work
T1 sequence (Q9Y6L6 1-691 N130D/V174A): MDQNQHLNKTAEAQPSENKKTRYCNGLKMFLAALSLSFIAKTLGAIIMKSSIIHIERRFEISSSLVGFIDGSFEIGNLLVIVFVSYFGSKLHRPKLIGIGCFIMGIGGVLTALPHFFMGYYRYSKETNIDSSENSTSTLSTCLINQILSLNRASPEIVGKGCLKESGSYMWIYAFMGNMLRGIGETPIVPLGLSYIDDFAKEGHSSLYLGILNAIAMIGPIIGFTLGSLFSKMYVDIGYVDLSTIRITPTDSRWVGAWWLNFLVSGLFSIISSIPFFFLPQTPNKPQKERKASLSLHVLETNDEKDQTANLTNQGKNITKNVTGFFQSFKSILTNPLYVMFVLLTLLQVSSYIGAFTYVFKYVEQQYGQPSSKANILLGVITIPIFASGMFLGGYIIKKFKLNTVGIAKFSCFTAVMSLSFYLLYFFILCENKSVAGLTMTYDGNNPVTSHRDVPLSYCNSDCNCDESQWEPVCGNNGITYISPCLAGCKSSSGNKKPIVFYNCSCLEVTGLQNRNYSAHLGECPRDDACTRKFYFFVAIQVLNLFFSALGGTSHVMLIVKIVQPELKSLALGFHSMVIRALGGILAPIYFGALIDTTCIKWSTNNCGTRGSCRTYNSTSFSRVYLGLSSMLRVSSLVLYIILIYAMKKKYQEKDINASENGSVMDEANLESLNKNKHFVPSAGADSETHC

OATP1B1 = molecular target: T2, OATP1B1 (Homo sapiens, UniProt Q9Y6L6); details: cited from earlier work; for transport activity by OATP1B1: OATP1B1*1a and three common variants
T2 construct: expressed in transfected cells; host or cells: HEK293 cells (stably transfected); Xenopus oocytes
T2 sequence (Q9Y6L6 1-691): T1 sequence (Q9Y6L6 1-691 N130D/V174A) with D130N, A174V

[2] = after intra peritoneal administration of irinotecan; cited from earlier work
[3] = Irinotecan and metabolite AUC by ABCC2 3972C>T genotype in cancer patients
Text: Sixty-four adults (48 Caucasians, 10 African-Americans, 4 Hispanics, and 2 others) with refractory solid tumors took part in the pharmacogenetic study.

[4] = CPT-11 pharmacokinetics by SLCO1B1*5 genotype in patients; details: human, in vivo, intravenous
Text: Six SNPs in ABCC2 were genotyped [−1549G>A, −1019A>G, −24C>T, 1249G>A, intron 27 −34C>T, 3972C>T] and haplotypes were estimated. Two SNPs in SLCO1B1 [*1b (388A>G) and *5 (521T>C)] were also genotyped.

[5] = cited from earlier work
[6] = cited from earlier work; remark: listed apart in the source

Structure (SMILES): C[C@]12CC[C@@H]3c4ccc(OS(=O)(=O)O)cc4CC[C@H]3[C@@H]1CCC2=O [estrone-3-sulfate]
- transport activity of variant SLCO1B1*15 [1]: decreased transport activities

Structure (SMILES): CCc1c2c(nc3ccc(O[C@@H]4O[C@H](C(=O)O)[C@@H](O)[C@H](O)[C@H]4O)cc13)-c1cc3c(c(=O)n1C2)COC(=O)[C@]3(O)CC [SN-38G, 10O-glucuronyl-SN-38]
- transport activity by OATP1B1 (OATP1B1): not transported

Structure (SMILES): CCc1c2c(nc3ccc(O)cc13)-c1cc3c(c(=O)n1C2)COC(=O)[C@]3(O)CC [SN-38, 7-ethyl-10-hydroxycamptothecin]
- transport activity of variant SLCO1B1*15 [1]: decreased transport activities
- tissue accumulation of SN-38 [2]: accumulate in the intestine
- transport activity by OATP1B1 (OATP1B1): transport activity for SN-38 was observed
- effect on SLCO1B1-mediated uptake of [(3)H]estrone-3-sulfate (OATP1B1): significant inhibitory effect
- AUC versus ABCC2 3972C>T genotype (TT compared to CT and CC) ([3]; 350 mg/m^2 IV irinotecan, patients with 6/6 and 6/7 UGT1A1 genotype (n=54)): No significant correlation

Structure (SMILES): CCc1c2c(nc3ccc(OC(=O)N4CCC(NCCCCC(=O)O)CC4)cc13)-c1cc3c(c(=O)n1C2)COC(=O)[C@]3(O)CC [APC]
- AUC ratio APC/irinotecan in TT patients compared to CT and CC patients ([3]; 350 mg/m^2 IV irinotecan): Higher values of AUC ratios

Structure (SMILES): CCc1c2c(nc3ccc(OC(=O)N4CCC(N5CCCCC5)CC4)cc13)-c1cc3c(c(=O)n1C2)COC(=O)[C@]3(O)CC [irinotecan]
- AUC ([4]; 350 mg/m^2, patients with SLCO1B1*5 CT+CC genotype): 29500 ± 8800 ng·h/mL
- AUC ([4]; 350 mg/m^2, patients with SLCO1B1*5 TT genotype): 22300 ± 5100 ng·h/mL
- transport activity by OATP1B1 (OATP1B1): not transported
- patients experiencing grade 3-4 neutropenia ([5]; both weekly and three-weekly regimens): 30-40%
- patients with grade 3-4 diarrhea ([5]; early single agent trials, dose limiting): about one third
- frequency of grade 3-4 diarrhea ([5]; three-weekly regimen): 19%
- mortality rate ([5]; three-weekly single agent regimen): 1.6%
- frequency of grade 3-4 diarrhea ([5]; weekly schedule): 36%
- mortality rate ([5]; weekly single agent regimen): 5.3%
- AUC in ABCC2 3972 TT patients compared to CT and CC patients ([3]; 350 mg/m^2 IV dose of irinotecan, 64 patients): higher AUC values

Structure (SMILES): CC[C@H](C)C(=O)O[C@H]1C[C@H](O)C=C2C=C[C@H](C)[C@H](CC[C@@H](O)C[C@@H](O)CC(=O)O)[C@H]21 [pravastatin]
- mean pravastatin AUC0-12 higher compared to non-carriers ([6]; heterozygous carriers of *15B (388A>G and 521T>C)): 93%
- mean pravastatin AUC0-12 higher compared to non-carriers ([6]; heterozygous carriers of *17 (-11187G>A, 388A>G and 521T>C)): 130%
- mean pravastatin AUC0-12 higher compared to reference genotype ([6]; subjects with 521TC genotype): 106%
- mean pravastatin AUC0-12 higher compared to reference genotype ([6]; subjects with -11187GA genotype): 98%
- transport activity of variant SLCO1B1*15 [1]: decreased transport activities
